Data on 1 molecule can be found in patent US20220298143A1, “Pyrazole Derivatives for FGFR Inhibitor and Preparation Method Thereof” (Etern Biopharma (Shanghai) Co., Ltd., priority 2019, published 2022).

pIC50: −log10 of the molar value.

The test system of one series is Hep3B cells. The experiment in a line: Human liver cancer cell Hep3B survival test (CellTiter-Glo). It is filed as cell-based. As to conditions: 72 hours compound treatment. The procedure: Human Liver Cancer Cell Hep3B Survival Test
The human liver cancer Hep3B cell line was from ATCC. The cells were cultured in DMEM liquid medium, and fetal bovine serum (10% FBS) and penicillin-streptomycin (100,000 U/L) were added. The cells were kept at 37° C., 95% humidity and 5% carbon dioxide in the culture medium. During the experiment, Hep3B cells were seeded in a 96-well plate at a density of 3000 cells per well. The volume of the cell suspension was 100 μL per well, and the cells were cultured overnight to attach the cells. The next day, each compound was diluted with DMSO in a three-fold gradient, and 1 μL of the solution of the compound in DMSO was added to the cell culture medium. At the same time, 1 μL of DMSO was used as a control. Three parallel sub-wells were set for each concentration of each compound. Then the cells were placed in a 37° C. incubator. After 72 hours of continuous compound treatment, 50 μL CellTiter-Glo (Promega, Madison Wis.) was added to the cell culture medium. The relative luminescence unit (RLU) of each well was determined and the cell survival rate and compound activity (IC50) were calculated.
(In general: In ATP-based viability assays light output follows the ATP content of the culture.)

In the next series the target is FGFR3 (Homo sapiens, UniProt P22607). The experiment in a line: Enzymatic activity test of FGFR inhibitor, Caliper model. The format is biochemical. Conditions: kinase pre-incubation 10 minutes.
Series [1] in a line: Compound pharmacokinetic experiment, single intragastric administration. As to conditions: mouse, plasma, male mice, oral dosage 15 mg/Kg. The format is in vivo. Here is the method: Compound Pharmacokinetic Experiment
The pharmacokinetics of the compounds of the present disclosure was determined. This application used the following methods to determine the pharmacokinetic parameters of the compounds.
For the healthy male adult mice used in the study, each group of animals was given a single intragastric administration of 5-100 mg/Kg. Fasting was from 10 hours before administration to 4 hours after administration. Blood was collected at different time points after administration, and the plasma content of the compound was determined (LC-MS/MS). The plasma concentration-time relationship was analyzed with professional software (winnonlin) to calculate the pharmacokinetic parameters of the compound.

A further series deals with FGFR2 (Homo sapiens, UniProt P21802). Description: Enzymatic activity test of FGFR inhibitor, Caliper model. It is filed as biochemical. Conditions: kinase pre-incubation 10 minutes.
The next series deals with T1, FGFR1 (Homo sapiens, UniProt P11362).
T1 construct: purchased Cama (sic; Carna) 08-133
The series is described as above. The format is biochemical. As to conditions: Caliper, kinase pre-incubation 10 minutes; read-out: FGFR1.

Series [2] deals with T2, FGFR1 (456-763) kinase domain protein (Homo sapiens, UniProt P11362).
T2 construct: The purified FGFR1 (456-763) kinase domain protein
Description: Confirmation of covalent bond formation between inhibitor and FGFR by mass spectrometry. The format is binding. Here is the method:
Confirmation of the Formation of Covalent Bonds Between FGFR Irreversible Inhibitors and FGFR by Mass Spectrometry
For example, compound 1 was incubated with FGFR1, the molecular weight of the protein-compound complex was detected by mass spectrometry.
Operation steps: The purified FGFR1 (456-763) kinase domain protein was diluted with a protein buffer (20 mM Tris-HCL pH8.0, 150 mM Nacl) to a final concentration of about 20 μM (800 ng/μl). A 100 ul incubation system was used, wherein compound 1 with a final concentration of 100 μM was added to the experimental group with a molar ratio of the protein to compound of 1:5 and DMSO was added to the control group. The amount of DMSO was controlled in the two groups to be 1% by volume of the system. The experimental group and the control group were incubated on ice at the same time for 2 hours, and then diluted with 4 times volume of acetone at −20 overnight. After centrifugation at 16000×g for 10 minutes, the deposit was resuspended in 0.1% formic acid and loaded for mass spectrometry data collection.

In series [3] the test system is Human liver cancer Hep3B cells. The experiment in a line: Hep3B transplanted tumor model. Conditions: 21 days. The format is in vivo, Balb/c nude mice. Here is the method:
Hep3B Transplanted Tumor Model
Cell culture: Human liver cancer Hep3B cells were cultured in a monolayer in vitro. The culture conditions were 1640 medium with 10% fetal bovine serum, 100 U/mL penicillin and 100 μg/mL streptomycin, incubated at 37° C. in 5% CO2 incubator. Routine digestive passage was performed by pancreatin-EDTA twice a week. When the cell saturation was 80%-90% and the number reached the requirement, the cells were collected, counted, and inoculated.
Animals: Balb/c nude mice, female, 6-8 weeks old, weighing 18-22 grams, provided by Shanghai Slack Laboratory Animal Co., Ltd. or other qualified suppliers.
Tumor inoculation: 0.2 mL (10×106+Matrixgel) Hep3B cells were subcutaneously inoculated on the right back of each mouse, and group administration was started when the average tumor volume reached about 140-200 mm^3.
Administration: compound prescription (0.5% MC+0.5% Tween 80) was made with administration dose of 0.3 mg/Kg, 1 mg/Kg, 2 mg/Kg, 3 mg/Kg, intragastric administration twice a day continuously for 21 days.
Experimental indicators: to investigate whether tumor growth was inhibited, delayed or cured, the tumor diameter was measured with a vernier caliper three times a week. The calculation formula for tumor volume is: V=0.5a×b2, where a and b represent the long diameter and short diameter of the tumor, respectively. The anti-tumor efficacy of the compound was evaluated by TGI (%). TGI (%) reflected the tumor growth inhibition rate.

The target in the next series is T3, FGFR4 (Homo sapiens, UniProt P22455).
T3 construct: purchased Invitrogen PR4380A
Description: Enzymatic activity test of FGFR inhibitor, Caliper model. It is filed as biochemical. Conditions: Caliper, kinase pre-incubation 10 minutes; read-out: FGFR4.

Where [4] appears, read: 100 μM compound, about 20 μM protein, 2 hours on ice.

T2 sequence (P11362 456-763): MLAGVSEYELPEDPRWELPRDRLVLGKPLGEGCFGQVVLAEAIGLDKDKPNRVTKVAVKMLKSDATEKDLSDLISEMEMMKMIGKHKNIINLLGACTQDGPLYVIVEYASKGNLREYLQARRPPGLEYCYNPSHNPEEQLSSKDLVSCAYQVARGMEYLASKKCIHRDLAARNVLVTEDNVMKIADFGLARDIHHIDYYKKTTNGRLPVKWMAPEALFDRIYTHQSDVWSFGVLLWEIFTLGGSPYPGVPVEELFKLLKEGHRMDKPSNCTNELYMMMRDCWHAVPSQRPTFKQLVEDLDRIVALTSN
T3 sequence (P22455 22-802): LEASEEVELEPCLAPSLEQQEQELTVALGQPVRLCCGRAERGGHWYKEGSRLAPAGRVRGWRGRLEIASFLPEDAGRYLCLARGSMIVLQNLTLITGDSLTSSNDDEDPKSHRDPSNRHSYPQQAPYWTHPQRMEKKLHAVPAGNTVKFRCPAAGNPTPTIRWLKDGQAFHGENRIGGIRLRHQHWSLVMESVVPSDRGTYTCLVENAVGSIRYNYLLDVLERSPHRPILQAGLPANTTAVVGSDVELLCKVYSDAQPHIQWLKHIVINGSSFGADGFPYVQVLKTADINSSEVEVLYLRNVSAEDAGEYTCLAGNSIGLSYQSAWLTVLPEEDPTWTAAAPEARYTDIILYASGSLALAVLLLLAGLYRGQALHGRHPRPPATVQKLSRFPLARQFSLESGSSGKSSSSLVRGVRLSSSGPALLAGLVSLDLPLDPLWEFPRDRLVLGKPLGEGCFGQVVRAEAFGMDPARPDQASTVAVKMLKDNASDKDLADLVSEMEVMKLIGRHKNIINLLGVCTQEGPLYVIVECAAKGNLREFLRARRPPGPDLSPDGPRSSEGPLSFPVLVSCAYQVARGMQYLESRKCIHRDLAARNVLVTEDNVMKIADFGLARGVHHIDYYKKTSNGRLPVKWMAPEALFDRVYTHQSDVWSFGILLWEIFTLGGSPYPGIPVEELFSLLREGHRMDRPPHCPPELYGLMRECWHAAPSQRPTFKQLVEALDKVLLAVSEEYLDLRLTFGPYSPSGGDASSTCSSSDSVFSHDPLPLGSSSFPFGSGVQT
T1 sequence (P11362 22-822): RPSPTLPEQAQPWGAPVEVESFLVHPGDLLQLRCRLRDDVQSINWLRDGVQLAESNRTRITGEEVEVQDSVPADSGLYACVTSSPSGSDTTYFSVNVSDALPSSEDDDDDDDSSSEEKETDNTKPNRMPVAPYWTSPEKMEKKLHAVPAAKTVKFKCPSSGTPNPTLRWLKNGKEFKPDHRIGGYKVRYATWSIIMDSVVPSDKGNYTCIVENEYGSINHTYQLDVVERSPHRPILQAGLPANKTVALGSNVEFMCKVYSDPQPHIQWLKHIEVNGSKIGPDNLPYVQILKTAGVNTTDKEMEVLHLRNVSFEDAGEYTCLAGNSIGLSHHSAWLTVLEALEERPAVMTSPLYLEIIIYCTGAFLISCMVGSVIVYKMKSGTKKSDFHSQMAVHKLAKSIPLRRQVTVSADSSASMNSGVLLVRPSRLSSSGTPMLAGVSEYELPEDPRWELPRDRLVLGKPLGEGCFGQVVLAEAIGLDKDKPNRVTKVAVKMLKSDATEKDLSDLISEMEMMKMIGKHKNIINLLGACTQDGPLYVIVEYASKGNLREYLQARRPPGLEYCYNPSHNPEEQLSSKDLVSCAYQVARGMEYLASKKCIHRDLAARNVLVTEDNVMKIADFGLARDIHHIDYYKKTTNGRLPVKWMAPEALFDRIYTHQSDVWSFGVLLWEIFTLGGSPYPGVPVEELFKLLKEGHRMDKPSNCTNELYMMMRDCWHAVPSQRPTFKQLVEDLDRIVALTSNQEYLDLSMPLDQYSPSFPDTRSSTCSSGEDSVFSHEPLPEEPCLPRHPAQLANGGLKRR
Sequence of FGFR2 (P21802 22-821): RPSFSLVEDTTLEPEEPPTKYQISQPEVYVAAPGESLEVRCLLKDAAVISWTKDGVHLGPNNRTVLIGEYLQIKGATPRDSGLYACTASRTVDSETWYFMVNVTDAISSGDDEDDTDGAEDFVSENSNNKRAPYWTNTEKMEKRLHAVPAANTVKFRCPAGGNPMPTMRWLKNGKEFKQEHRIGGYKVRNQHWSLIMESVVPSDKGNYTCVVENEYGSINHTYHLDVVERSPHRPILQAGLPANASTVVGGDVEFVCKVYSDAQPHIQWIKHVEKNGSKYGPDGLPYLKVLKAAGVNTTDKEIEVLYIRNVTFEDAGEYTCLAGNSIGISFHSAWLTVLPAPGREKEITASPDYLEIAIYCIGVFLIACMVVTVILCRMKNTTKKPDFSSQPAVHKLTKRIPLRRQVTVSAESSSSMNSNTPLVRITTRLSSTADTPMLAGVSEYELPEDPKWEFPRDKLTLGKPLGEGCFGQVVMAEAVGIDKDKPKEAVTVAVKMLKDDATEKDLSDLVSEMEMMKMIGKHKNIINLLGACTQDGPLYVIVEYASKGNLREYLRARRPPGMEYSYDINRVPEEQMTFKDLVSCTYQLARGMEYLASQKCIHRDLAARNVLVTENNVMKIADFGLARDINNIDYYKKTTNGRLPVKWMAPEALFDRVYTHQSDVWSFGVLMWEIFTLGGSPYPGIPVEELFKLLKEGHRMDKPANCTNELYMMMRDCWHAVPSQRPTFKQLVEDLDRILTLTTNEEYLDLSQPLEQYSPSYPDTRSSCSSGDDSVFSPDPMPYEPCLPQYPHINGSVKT
Sequence of FGFR3 (P22607 23-806): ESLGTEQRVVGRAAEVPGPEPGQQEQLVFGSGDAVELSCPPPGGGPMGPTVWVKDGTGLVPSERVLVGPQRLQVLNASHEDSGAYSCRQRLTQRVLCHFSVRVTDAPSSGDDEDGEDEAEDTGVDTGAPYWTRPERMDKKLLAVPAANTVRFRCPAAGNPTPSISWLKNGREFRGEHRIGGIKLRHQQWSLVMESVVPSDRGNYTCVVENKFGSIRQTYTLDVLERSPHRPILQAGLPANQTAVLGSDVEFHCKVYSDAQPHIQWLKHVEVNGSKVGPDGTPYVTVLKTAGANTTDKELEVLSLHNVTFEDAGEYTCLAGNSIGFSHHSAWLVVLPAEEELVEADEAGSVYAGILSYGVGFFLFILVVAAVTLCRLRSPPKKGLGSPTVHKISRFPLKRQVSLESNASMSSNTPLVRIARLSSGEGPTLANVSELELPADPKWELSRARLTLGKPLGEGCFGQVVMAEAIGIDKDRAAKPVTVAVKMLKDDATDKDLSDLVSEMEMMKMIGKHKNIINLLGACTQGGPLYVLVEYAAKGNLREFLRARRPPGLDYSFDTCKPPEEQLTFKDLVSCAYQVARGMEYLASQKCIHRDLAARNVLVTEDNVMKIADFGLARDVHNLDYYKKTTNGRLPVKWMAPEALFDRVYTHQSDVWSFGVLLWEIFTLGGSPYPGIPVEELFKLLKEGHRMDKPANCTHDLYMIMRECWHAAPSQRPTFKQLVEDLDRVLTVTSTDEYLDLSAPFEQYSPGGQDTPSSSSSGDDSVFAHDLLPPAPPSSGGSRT
Description for FGFR2: (§1) Enzymatic Activity Test of FGFR Inhibitor-Caliper Model
(§2) The specific operation steps were as follows:
(§3) The compound was first serially diluted in 5% DMSO solution, and 5 μL of the compound solution was added to a 384-well plate. The maximum final concentration of the compound is 1 μM, being diluted three times with 10 concentrations.
(§4) 10 μL of kinase solution was added to the 384-well plate and incubated at room temperature for 10 minutes;
(§5) 10 μL of P22 peptide and ATP solution were added to the 384-well plate, and 25 μL of reaction stop buffer was added after a specific time at 28° C.;
(§6) The data was collected in Caliper read and the inhibition rate was calculated according to inhibition rate=(max−conversion)/(max−min)*100, where max is DMSO control, conversion is the reading of the compound treated group, and min is the maximum inhibition control. IC50 value of the compound was calculated with XLfit excel add-in version 5.4.0.8 software.
Description for FGFR4: as §1, §2, §3, §4, §5, §6

Regarding `C=CC(=O)Nc1cc(N2CCN(CCC(F)(F)F)CC2)ccc1C(=O)Nc1cc(CCc2cc(OC)cc(OC)c2)n[nH]1` [Compound 1, 2-acrylamide-N-(3-(3,5-dimethoxyphenethyl)-1H-pyrazol-5-yl)-4-(4-(3,3,3-trifluoropropyl)piperazin-1-yl) benzamide], the pIC50 was 8.85 in the series with Hep3B cells; 8.48 against FGFR3; 8.74 against FGFR2; 8.72 at FGFR1; 8.92 on FGFR4. Further, in series [1] (read-out: Peak plasma concentration Cmax), the Cmax amounted to 1220 nM. The exposure (AUC) in series [1] (read-out: Plasma exposure AUC) was determined as 2.27 µM·h. For the same molecule, the “average molecular weight of protein-compound complex” value in series [2] (setting [4]) turned out to be 36345.5 Da. Further, the “Δmolecular weight (complex versus DMSO + FGFR1)” value in series [2] (setting [4]) was found to be 598. In series [2] (mass spectrometry), the “formation of covalent bond with FGFR1 protein” value is “formed an irreversible covalent bond”. Further, the TGI % in series [3] (0.3 mpk oral twice a day) stood at 17%; in series [3] (1 mpk oral twice a day), 50%; in series [3] (2 mpk oral twice a day), 100%; in series [3] (3 mpk oral twice a day), 108%.

In general, AUC refers to the area under the concentration-time curve, a measure of exposure.
